Legend:
SK-MEL-2 = details: human, 48 h
SF-295 = details: human, 48 h
SNB-75 = details: human, 48 h
SNB-19 = details: human, 48 h
ACHN = details: human, 48 h
NCI-H266 = details: human, 48 h
EKVX = details: human, 48 h
NCI-H322M = details: human, 48 h
MDA-MB-231 cell line = experiment: Annexin V-FITC/propidium iodide flow cytometry; assay type: cell-based, human; details: 24 h
Protocol: Similarly to Figure 3, Figure 4 showcases the flow cytometric assessment of compounds effects on apoptosis induction on the MDA-MB-231 cell line after 24 h of incubation with tested structures. For this cell line, based on previous results, higher concentrations of tested compounds were chosen: 5 and 10 μM. […] At the same time, compound 12b showcased 7.3% of early and late apoptotic cells, 1.2% of necrotic cells in 5 μM concentration, and 13.8% and 22.3% in 10 μM concentration, consequently.
(§1) To conduct induction of apoptosis on MCF-7 and MDA-MB-231 cell lines, three compounds with the lowest IC50 values were selected (2b, 12b, 14b). The concentration of these compounds depended on the cell line. For MCF-7 cell line concentrations of 1 and 5 μM were used, while for MDA-MB-231 cell line concentrations were 5 and 10 μM. For both cell lines doxorubicin was used as a reference compound in 1 and 5 μM concentrations. This study was evaluated using a flow cytometer (BD FACSCanto II, Becton Dickinson Biosciences Systems, San Jose, CA, USA) and Annexin V binding Apoptosis Detection Kit II (BD Biosciences, San Diego, CA, USA). Cells were seeded in 6-well culture plates cultured in accordance with the previously described methodology. The medium was removed from wells and then cells were washed with PBS. A cell suspension was prepared in the binding buffer provided in the kit at a concentration of 1 × 10^6 cells/mL. A total of 100 µL of cell suspension was collected from each sample and transferred to the tubes. Afterwards, 5 µL of Annexin V-FITC and 4 µL of propidium iodide (PI) were added to each tube and then the tubes were incubated in the dark for 15 min at room temperature. After incubation, the suspension was supplemented to 300 µL with a binding buffer and immediately read in a BD FACSCanto II flow cytometer (Becton Dickinson Biosciences, San Jose, CA, USA), where 10,000 events per sample were measured. Results were analyzed using FACSDiva Software Version 6.1.3. (BD Biosciences Systems, San Jose, CA, USA).

MCF-7 cell line = experiment: Annexin V-FITC/propidium iodide flow cytometry; assay type: cell-based, human; details: 24 h
Protocol: The three chosen compounds, 2b, 12b, and 14b, were tested using Annexin V-FITC and propidium iodide to assess their effects on apoptosis induction on MCF-7 and MDA-MB-231 cell lines. To evaluate the population of cells, four states were determined: unstained cells (alive), cells stained with propidium iodide (necrotic), cells stained with FITC-labeled Annexin V (early apoptotic), and cells stained with both Annexin V and propidium iodide (late apoptotic). […] In a concentration of 5 μM the values were 8.5% and 12.2%, respectively. For 12b in a concentration equal to 1 μM, the obtained results showcased 7.2% of cells in early and late apoptosis and 0.7% in a state of necrosis. For 5 μM concentration results were 23.7% and 11.5%, respectively.
as §1

COLO 205 = experiment: cells; details: Homo sapiens, COLO 205, 48 h; for CC50: read-out: LC50, COLO 205, 48 h
MDA-MB-468 = details: human, 48 h
[1] = tested on: caspase-3 in MDA-MB-231 cells; experiment: caspase-3 ELISA; assay type: cell-based, human; details: MDA-MB-231, 10 μM (highest concentration), 24 h
Protocol: To confirm the activity of the caspase pathway, an effector caspase-3 was assayed on MCF-7 and MDA-MB-231 cell lines after 24 h of treatment using the ELISA method. Novel 4-thiazolidinone derivatives were tested in concentrations of 1 and 5 μM for the MCF-7 cell line and 5 and 10 μM for the MDA-MB-231 cell line.
Using a SimpleStep ELISA kit (Abcam, Cambridge, UK), we determined the levels of cytochrome C and caspase-3 in cells’ lysates with 2b, 12b, and 14b (1 and 5 μM for the MCF-7 cell line and 5 and 10 μM for the MDA-MB-231) and doxorubicin in concentrations of 1 and 5 μM for both lines after 24 h incubation. Assays were performed according to the manufacturer’s protocols.

U251 = details: human, 48 h
SF-539 = experiment: cells; details: Homo sapiens, SF-539, 48 h
MDA-MB-231/ATCC = experiment: cells; details: Homo sapiens, MDA-MB-231, 48 h; for GI50: MDA-MB-231/ATCC, 48 h; for CC50: read-out: LC50, MDA-MB-231/ATCC, 48 h

Row | Compound | combined apoptotic cells (MDA-MB-231 cell line; MDA-MB-231, 5 μM) [%] | necrotic cells (MDA-MB-231 cell line; MDA-MB-231, 5 μM) [%] | combined apoptotic cells (MDA-MB-231 cell line; MDA-MB-231, 10 μM) [%] | necrotic cells (MDA-MB-231 cell line; MDA-MB-231, 10 μM) [%] | cells in late and early apoptosis combined (MCF-7 cell line; MCF-7, 1 μM) [%] | necrotic cell population (MCF-7 cell line; MCF-7, 1 μM) [%] | cells in late and early apoptosis combined (MCF-7 cell line; MCF-7, 5 μM) [%] | necrotic cell population (MCF-7 cell line; MCF-7, 5 μM) [%] | GI50 (COLO 205) [µM] | CC50 (COLO 205) [µM] | change of caspase-3 concentration [1] | GI50 (SF-539) [µM] | GI50 (MDA-MB-231/ATCC) [µM] | CC50 (MDA-MB-231/ATCC) [µM] | other results
1 | O=C(O)CCCN1C(=O)/C(=C/C=C/c2ccc([N+](=O)[O-])o2)SC1=S [13b, 4-((Z)-5-((E)-3-(5-Nitrofuran-2-yl)allylidene)-4-oxo-2-thioxothiazolidin-3-yl)butanoic acid] |  |  |  |  |  |  |  |  |  |  |  |  |  |  | CC50 (SK-MEL-2): 4.2 µM; CC50 (SF-295): 5.08 µM; CC50 (SNB-75): 5.49 µM; CC50 (SNB-19): 5.5 µM; CC50 (ACHN): 3.72 µM; CC50 (NCI-H266): > 100 µM; CC50 (EKVX): 6.05 µM; CC50 (NCI-H322M): 22.8 µM
2 | O=C(O)CCCCCN1C(=O)/C(=C/C=C/c2ccc([N+](=O)[O-])o2)SC1=S [14b, 6-((Z)-5-((E)-3-(5-nitrofuran-2-yl)allylidene)-4-oxo-2-thioxothiazolidin-3-yl)hexanoic acid] | 5.7 | 1.4 | 28.8 | 42.6 | 6.9 | 0.6 | 29.2 | 11.7 | 1.56 | 6.05 | at least two times more |  |  |  | CC50 (SK-MEL-2): 6.87 µM; CC50 (SF-295): 6.61 µM; CC50 (MDA-MB-468): 4.29 µM; CC50 (SNB-75): 4.03 µM; CC50 (SNB-19): 6.67 µM; CC50 (ACHN): 5 µM; CC50 (NCI-H266): 96.3 µM; CC50 (EKVX): 7.52 µM; CC50 (U251): 5.02 µM; CC50 (NCI-H322M): 6.92 µM
3 | CCCCC(C(=O)O)N1C(=O)/C(=C/C=C/c2ccc([N+](=O)[O-])o2)SC1=S (stereo not shown) [6b, 2-((Z)-5-((E)-3-(5-nitrofuran-2-yl)allylidene)-4-oxo-2-thioxothiazolidin-3-yl)hexanoic acid] |  |  |  |  |  |  |  |  | 2.02 | 6.65 |  | 1.89 | 2.27 | 8.73 | 
4 | CC(C(=O)O)N1C(=O)/C(=C/C=C/c2ccc([N+](=O)[O-])o2)SC1=S (stereo not shown) [2b, 2-((Z)-5-((E)-3-(5-Nitrofuran-2-yl)allylidene)-4-oxo-2-thioxothiazolidin-3-yl)propanoic acid] | 7.8 | 6.6 | 7.5 | 44 | 7.7 | 0.7 | 8.5 | 12.2 |  |  | slight increase |  |  |  | 
5 | CC(C)C(C(=O)O)N1C(=O)/C(=C/C=C/c2ccc([N+](=O)[O-])o2)SC1=S (stereo not shown) [5b, 3-Methyl-2-((Z)-5-((E)-3-(5-nitrofuran-2-yl)allylidene)-4-oxo-2-thioxothiazolidin-3-yl)butanoic acid] |  |  |  |  |  |  |  |  | 1.33 | 5.83 |  | 1.44 | 1.56 | 5.9 | 
6 | CCCC(C(=O)O)N1C(=O)/C(=C/C=C/c2ccc([N+](=O)[O-])o2)SC1=S (stereo not shown) [4b, 2-((Z)-5-((E)-3-(5-Nitrofuran-2-yl)allylidene)-4-oxo-2-thioxothiazolidin-3-yl)pentanoic acid] |  |  |  |  |  |  |  |  | 1.95 | 6.66 |  | 2.12 | 2.21 | 8.33 | 
7 | O=C(O)CCN1C(=O)/C(=C/C=C/c2ccc([N+](=O)[O-])o2)SC1=S [12b, 3-((Z)-5-((E)-3-(5-Nitrofuran-2-yl)allylidene)-4-oxo-2-thioxothiazolidin-3-yl)propanoic acid] | 7.3 | 1.2 | 13.8 | 22.3 | 7.2 | 0.7 | 23.7 | 11.5 |  |  | significant increase | 1.66 | 1.7 | 6.15 | 
8 | O=C(O)C(c1ccccc1)N1C(=O)/C(=C/C=C/c2ccc([N+](=O)[O-])o2)SC1=S (stereo not shown) [9b, 2-((Z)-5-((E)-3-(5-Nitrofuran-2-yl)allylidene)-4-oxo-2-thioxothiazolidin-3-yl)-2-phenylacetic acid] |  |  |  |  |  |  |  |  | 6.65 | 60.4 |  | 12 | 10.8 | 54.2 | 
